Data from patent US4649156A, “6-nitroprostaglandin derivatives” (Teijin Limited, priority 1982, dated 1987).
In brackets after ≈: the same amount, converted by molar mass.

Columns and labels:
platelet aggregation = assay: In vitro inhibitory activity of platelet aggregation (ADP-induced, platelet-rich plasma); format: cell-based, rabbit (Japanese domestic white male rabbits); conditions: Oryctolagus cuniculus, rabbit PRP, 10 μM (final) ADP, pre-incubated at 37° C. for 2 minutes, read-out: IC50 (minimum concentration of the drug which inhibited more than 50% of platelet aggregation)
Procedure: The in vitro platelet aggregation imhibiting activity of the compounds of the invention were examined by using rabbits. Blood was withdrawn from the ear vein of Japanese domestic white male rabbits weighing 2.5 to 3.5 kg. A mixture of a 3.8% trisodium citrate solution and the blood in a ratio of 1:9 was centrifuged at a speed of 1000 rpm for 10 minutes. The upper layer was separated as platelet-rich plasma (PRP). The lower layer was further centrifuged at a speed of 28000 rpm for 10 minutes. The upper layer was separated as platelet-poor plasma (PPP). The number of platelets was adjusted to 6×10^5 /μl to 7×10^5 […] by diluting the PRP with PPP. 25 microliters of the test compounds prepared as shown below was added in an amount of 25 to 250 microliters of PRP after the adjustment, and the mixture was pre-incubated at 37° C. for 2 minutes, and then 10 μM (final) of ADP was added. By using an aggregometer, changes in transmission were recorded.
The drug was dissolved in ethanol to a concentration of 10 mg/ml, and successively diluted with phosphate buffer (pH 7.4) prior to use.
The rate of inhibition of platelet aggregation was determined from the following equation. [formula] To : the transmittance of the system containing the phosphate buffer, T: The transmittance of the system to which the test drug was added. […]

[1] = tested on: blood pressure and heart beat rate of rats; assay: Measurement of the hypotensive activity (blood pressure and heart beat rate, i.v., anesthetized rats); format: in vivo, rat (male wister rats); conditions: Rattus norvegicus, iv, urethane/α-chloralose anesthesia; for ED10: read-out: H-ED10 (dosage which caused a 10% increase of the heart rate); for ED20: read-out: P-ED20 (dosage which caused a 20% lowering of the mean blood pressure)
Procedure: Measurement of the Hypotensive Activity
The actions of the 6-nitroprostaglandin E1 derivatives of the invention on the blood pressure and heart beat rate of rats were examined by intravenous injection under anesthesia.
Male wister rats weighing about 250 g were used. Urethane (500 mg/kg) and α-chloralose (100 mg/kg) were intraperitoneally administered to the rats. The rats were anesthetized and fixed in place.
Each of the test compounds was dissolved in a small amount of ethanol and diluted with physiological saline to adjust the final ethanol concentration to not more than 5%. The solution was intravenously injected into the rats through a catheter inserted into the femoral vein.
The blood pressure of the rats were measured by a pressure transducer through a catheter inserted into the carotid artery of the rats. The heart beat rate was determined from the blood pressure pulse.
The action of the test compound on the blood pressure was expressed as the dosage (p-EDz20, μg/kg) of the test compound which caused a 20% lowering of the mean blood pressure before administration of the compound. The action of the test compound on the heart rate was expressed as the dosage (H-ED10, μg/kg) of the test compound which caused a 10% increase of the heart rate from the heart beat rate before administration of the test compound.

indomethacin ulcer = assay: Measurement of inhibitory activity on indomethacin ulcer; format: in vivo, rat (wistar-strain male rats); conditions: indomethacin 20 mg/kg oral, n=8
Procedure: Seven week-oil wistar-strain male rats (body weight 200 to 220 g) were fasted for 24 hours but water was provided freely, and then used in the following experiment.
Each of the test compounds suspended in phosphate Buffers (pH 7.4) was orally administered to the rats, and 30 minutes later, indomethacin was orally administered in a dose of 20 mg/kg. Six hours later, the animals were sacrificed. The abdomen was cut open, and the stomach was removed. 1% Even's blue was injected in an amount of 0.5 ml/rat into the rats through the tail vein under ether anesthesia 10 minutes before sacrificing.
12 ml of a 1% formalin was injected into the stomach and the stomach was further dipped in 1% formaline for about 10 minutes for the fixation. The stomach was cut open on the side of the greater curvature, and spread on a glass plate. The lengths of ulcers generated in the glandular stomach were measured by using a solid microscope. The sum of the lengths of the ulcers for each nimal was used as the ulcer index. The ulcer inhibiting ratio of the test compound was calculated in accordance with the following equation. [formula]
The control group was given phosphate buffer saline (pH 7.4) indomethacin alone.

CCCCC[C@H](O)/C=C/[C@H]1[C@H](O)CC(=O)[C@@H]1CC(CCCCC(=O)OC)[N+](=O)[O-] (stereo partly drawn) [6-nitroprostaglandin E1 methyl ester]
IC50 (platelet aggregation): 4.5 µg/mL (≈ 10.9 µM)
ED10 [1]: > 0.01 mg/kg
ED20 [1]: 0.01 mg/kg

CCCC[C@H](C)C[C@H](O)/C=C/[C@H]1[C@H](O)CC(=O)[C@@H]1CC(CCCCC(=O)OC)[N+](=O)[O-] (stereo partly drawn) [17(S),20-dimethyl-6-nitroprostaglandin E1 methyl ester]
IC50 (platelet aggregation): 0.017 µg/mL (≈ 0.0385 µM)
ED10 [1]: > 0.01 mg/kg
ED20 [1]: 0.0004 mg/kg
Inhibition (ulcer inhibiting ratio) (indomethacin ulcer; 3 μg/kg oral): 12.6%
Ulcer index (indomethacin ulcer; 3 μg/kg oral): 12.5 ± 3.2 mm
Inhibition (ulcer inhibiting ratio) (indomethacin ulcer; 10 μg/kg oral): 51.0%
Ulcer index (indomethacin ulcer; 10 μg/kg oral): 7.0 ± 1.8 mm
Inhibition (ulcer inhibiting ratio) (indomethacin ulcer; 30 μg/kg oral): 80.4%
Ulcer index (indomethacin ulcer; 30 μg/kg oral, **P < 0.01): 2.8 ± 1.2 mm
